According to US6906061B2, “Pharmaceutical agent containing Rho kinase inhibitor” (Mitsubishi Pharma Corporation, priority 1996, dated 2005):
Structures can show the parent of a compound that is named as a salt.

Experiments:
Human SK-Mel-28 melanoma = assay: Inhibition of cell growth of SK-Mel-28 melanoma; type: cell-based; conditions: 72 hours, MTT
Method: Inhibition of Cell Growth of SK-Mel-28 Melanoma
Human SK-Mel-28 melanoma (10^4 cells) and the test compound were suspended in RPMI1640 medium containing 100 μl of 10% FBS and incubated in a 96 well plate at 37° C. under 5% CO2 gas for 72 hours. After the incubation, 10 μl of MTT (5 mg/ml) was added to each well and the cells were incubated at 37° C. under 5% CO2 gas for 4 hours. Then, 10% sodium dodecyl sulfate and 0.01 N hydrochloric acid solution were each added by 10 μl to respective wells. After the plate was stood overnight, absorbance at 570 nm was measured using a microplate reader and the inhibition percentage (% cytotoxicity) was calculated by the following formula.
The cytotoxicity against human cultured tumor cells was confirmed by pigment method (Carmichael et al., Cancer Res., 47, 936-942, 1987: Mosman, J. Immunol. Methods, 65, 55-63, 1983) using 3-(4,5-dimethylthiazol-2-yl)-2,5-diphenyltetrazolium bromide (MTT).
The test compound was dissolved in dimethyl sulfoxide and diluted with RPMI 1640 medium before use. The final dimethyl sulfoxide concentration was adjusted to not more than 0.25%.

mouse femoral bone = assay: Inhibition of bone resorption (in vitro), mouse femoral bone; conditions: 144 h, 6 days incubation of ICR mouse femoral bone
Method: Inhibition of Bone Resorption (in vitro)
The determination of the in vitro inhibition of bone resorption using mouse femoral bone followed the method below.
The femoral bone of 3-6 week old male ICR mice was aseptically removed, and bone marrow cavity was washed with F12 medium, containing 10% heat inactivated fetal bovine serum, penicillin G calcium (100 units/ml), kanamycin sulfate (60 μg) and 0.15% sodium hydrogencarbonate (hereinafter the medium is to be referred to as culture solution). After washing the bone marrow cavity and then removing the soft tissue adhered to the bone, the bone was subjected to incubation. The test compound was once dissolved in dimethyl sulfoxide (DMSO) to give a 10 mg/ml solution, which was diluted 1000-fold with the culture solution to give a 10 μg/ml solution. The test compounds were respectively added to the concentration shown in Table 7 and, using this culture solution (1.2 ml), the ICR mouse femoral bone was incubated in a 24 well plate for 6 days under the conditions of 5% CO2 gas, 95% air. After the completion of the incubation, the culture supernatant was recovered, and the amount of calcium suspending in the culture supernatant was quantitatively determined by the chelate method using o-cresolphthalein. The bone resorption inhibitory action of the test compound was calculated by the following formula using the incubation of the femoral bone without addition of the test compound as a control. [formula] This experiment was done with 4 cases in each group. As the control, the same amount of DMSO alone as in the case with the addition of the test compound was used.

[1] = system: hind limb skin blood flow; assay: Peripheral blood flow increasing action in STZ-induced diabetic rats; type: in vivo, rat; conditions: intravenous, 1 μg
Method: Peripheral Blood Flow Increasing Action
Streptozotocin (STZ, 65 mg/kg) was intravenously injected to male SD rats (body weight 200-300 g) to prepare diabetic rats. One month later, STZ-induced diabetic rats were anesthetized with pentobarbital sodium and the blood flow in the hind limb skin was measured with laser blood flowmeter (ALF21R, Advance). The test compound was intravenously administered via catheter dwelled in the carotid arteries, and hind limb skin blood flow increasing action was observed. The blood flow increasing action of the test compound was expressed by increase percentage from the blood flow before administration.

[2] = system: smooth muscle cell (SMC) from rat aorta; assay: Inhibition of growth of vascular smooth muscle cell; type: cell-based; conditions: 48 hours, MTT
Method: Inhibition of Growth of Vascular Smooth Muscle Cell
The separation from the artery of rat and culture of smooth muscle cell (SMC) followed the explant method of Ross (Ross, R. and Glomset, J. A., N. Engl. J. Med., 295, 369-420, 1976). Male wistar rats (10 week old) was slaughtered by cutting the carotid arteries and aorta of thorax was removed. After removal of fat tissues around the tunica externa and peeling of tunica intima, the artery was minced and incubated in 10% fetal bovine serum (FBS)-containing DMEM medium at 37° C. under 5% CO2 gas. Seven days later, the out-grown cells were separated by trypsin treatment, washed with phosphate-buffered saline (PBS) and incubated in 10% FBS-containing DMEM medium in a 80 cm^2 culture flask. The cells of subculture 2 were suspended in 10% FBS-containing DMEM medium at 5×10^4 cells/ml and 100 μl thereof per well was added to 96 well collagen-coated plate, which was incubated at 37° C. under 5% CO2 gas for one day. The test compound was appropriately diluted with dimethyl sulfoxide (DMSO) and added to the 96 well plate. The concentration of DMSO in the medium was adjusted to 1%. After 48 hours, 10 μl of MTT solution (5 mg/ml) was added and, 4 hours later, 10% sodium dodecyl sulfate-0.01 N hydrochloric acid (50 μl) was added. The absorbance at 570 nm was measured the following day by an immunoreader. The SMC growth inhibitory action of the test compound was shown by inhibition percentage calculated by the following formula The results are shown in Table 10.

[3] = system: thoractic aorta ring contracted with phenylephrine; assay: Vasodilating action on phenylephrine-contracted thoracic aorta rings; conditions: rabbit aortic ring, phenylephrine 10^−6 M contraction; concentration for 50% relaxation; read-out: Vasorelaxing action
Method: Male rabbits (body weight 1.9-3.0 kg) were anesthetized with pentobarbital sodium and exsanguinated, whereafter thoractic aorta was removed. An about 2 mm width aortic ring samples were prepared and hung in a Magnus bath (40 ml) filled with Krebs-Henseleit solution (37° C., NaCl 117 mM; KCl 4.7 mM; CaCl2 2.5 mM; MgSO4 1.2 mM; NaHCO3 24.8 mM; KH2PO4 1.2 mM; glucose 11.0 mM) at a load of 2 g. The Magnus bath was constantly bubbled with a mixed gas (95% O2+5% CO2 gas). The tension of the preparation was measured with an isomeric transducer (TB-611T, Nippon Koden). The preparation was contracted with phenylephrine (10^−6 M) and, after the contraction was stabilized, the test compound was added accumulatively and relaxing action was observed.

[4] = system: trachea specimen contracted with acetylcholine; assay: Effect on contraction by acetylcholine of trachea specimen removed from guinea pig; conditions: acetylcholine 10^−6 M contraction, 50% relaxation vs papaverine 10^−4 M maximum, read-out: Trachea relaxing action
Method: Male Hartley guinea pigs (body weight 260-390 g) were anesthetized by the peritoneal administration of pentobarbital sodium (100 mg/kg) and exsanguinated, whereafter trachea was removed. The anterior cartilage of the trachea was opened and the band was cut in a 3 mm width strip to give a specimen. The specimen was hung in a Magnus bath (40 ml) filled with Krebs-Henseleit solution (NaCl 117 mM; KCl 4.7 mM; CaCl2 2.5 mM; MgSO4 1.2 mM; NaHCO3 24.8 mM; KH2PO4 1.2 mM; glucose 11.0 mM) at a load of 1 g. The Magnus bath was constantly bubbled with a mixed gas (95% O2+5% CO2 gas). The tension of the strip was measured with an isomeric transducer (TB-611T, Nippon Koden) and depicted on a recorder (Ti-102, Tokai Irika).

[5] = target: T1, Human Platelet Rho Kinase (p160ROCK) (Homo sapiens, UniProt Q13464); assay: Rho kinase inhibitory action (inhibition of human platelet Rho kinase (p160ROCK)); type: biochemical; conditions: histone substrate, 1 μM ATP
T1 construct: Human platelet p160ROCK was isolated by the method of Ishizaki et al; from tissue; host or cells: human platelets
T1 sequence (Q13464 whole entry): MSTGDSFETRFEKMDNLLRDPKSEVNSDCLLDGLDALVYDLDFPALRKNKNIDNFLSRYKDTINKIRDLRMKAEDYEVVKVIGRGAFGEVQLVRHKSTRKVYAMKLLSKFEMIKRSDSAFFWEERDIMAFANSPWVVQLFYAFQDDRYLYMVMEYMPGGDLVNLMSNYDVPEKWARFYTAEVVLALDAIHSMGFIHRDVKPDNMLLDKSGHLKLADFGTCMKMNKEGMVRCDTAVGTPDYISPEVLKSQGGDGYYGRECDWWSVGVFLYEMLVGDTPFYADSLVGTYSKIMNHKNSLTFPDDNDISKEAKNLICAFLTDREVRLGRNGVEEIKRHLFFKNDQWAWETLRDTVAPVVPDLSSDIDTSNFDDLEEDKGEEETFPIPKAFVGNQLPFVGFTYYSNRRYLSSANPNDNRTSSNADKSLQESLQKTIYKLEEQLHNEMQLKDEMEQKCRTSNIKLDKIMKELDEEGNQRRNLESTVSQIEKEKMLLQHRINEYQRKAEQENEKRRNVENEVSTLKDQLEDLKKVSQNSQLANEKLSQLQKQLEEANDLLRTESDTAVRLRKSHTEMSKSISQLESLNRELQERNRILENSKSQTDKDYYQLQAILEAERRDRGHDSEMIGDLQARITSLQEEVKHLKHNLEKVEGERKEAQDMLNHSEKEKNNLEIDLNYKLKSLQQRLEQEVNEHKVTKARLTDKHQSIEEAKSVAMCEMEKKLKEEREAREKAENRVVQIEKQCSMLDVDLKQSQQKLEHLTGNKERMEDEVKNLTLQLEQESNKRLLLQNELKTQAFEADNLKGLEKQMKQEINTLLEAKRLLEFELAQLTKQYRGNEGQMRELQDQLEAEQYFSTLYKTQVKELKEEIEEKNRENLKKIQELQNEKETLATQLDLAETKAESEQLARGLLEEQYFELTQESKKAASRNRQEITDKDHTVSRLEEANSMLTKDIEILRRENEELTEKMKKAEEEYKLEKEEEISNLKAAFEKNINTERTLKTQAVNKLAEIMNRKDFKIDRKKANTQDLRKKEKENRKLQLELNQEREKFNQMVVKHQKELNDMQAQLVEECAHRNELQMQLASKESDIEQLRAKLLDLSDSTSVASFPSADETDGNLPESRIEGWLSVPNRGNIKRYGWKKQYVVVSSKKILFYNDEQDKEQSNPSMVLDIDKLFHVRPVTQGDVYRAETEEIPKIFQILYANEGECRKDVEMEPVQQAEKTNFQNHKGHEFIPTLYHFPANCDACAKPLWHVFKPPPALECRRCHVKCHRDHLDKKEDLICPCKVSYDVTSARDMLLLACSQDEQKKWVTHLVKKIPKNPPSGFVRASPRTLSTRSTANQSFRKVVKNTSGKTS
Method: Rho Kinase Inhibitory Action (Inhibition of Human Platelet Rho Kinase (p160ROCK))
Kinase assay included the following steps. That is, a reaction mixture (total amount 30 μl) containing 50 mM Hepes-NaOH (pH=7.4), 10 mM MgCl2, 5 mM MnCl2, 2 mM dithiothreitol, 0.02% Brij35, 1 μM [γ-^32P]ATP, 330 μg/ml histone, p160ROCK (2 μl) isolated by the method of Ishizaki et al. and the test compound was incubated at 30° C. for 20 minutes. The solution was mixed with a 1/3 amount of 4× Laemmli sample buffer, boiled for 5 minutes and applied to SDS-PAGE. The gel was stained with Coomassie Brilliant Blue and dried. The band of histone was cut out and assayed for radioactivity.

[6] = system: BALB/c spleen cells stimulated with C57BL/6 spleen cells; assay: Inhibition of mouse allogenic mixed lymphocyte reaction; type: cell-based; conditions: Mus musculus, Lymphocyte, 96 h; 4 days culture, MTT; read-out: Mouse allogenic MLR inhibitory activity IC50
Method: Inhibition of Mouse Allogenic Mixed Lymphocyte Reaction
A mouse allogenic mixed lymphocyte reaction (hereinafter to be referred to as mouse allogenic MLR) was performed by mixed culture (equal ratio) of the spleen cell of BALB/c mice as the reaction cell and the spleen cell of C57BL/6 mice treated with mitomycin C as stimulated cell.
The reaction cells were prepared by the following method. Spleen was removed from 5-6 week old BALB/c mice and treated with RPMI1640 medium (containing kanamycin sulfate (60 μg/ml), penicillin G potassium (100 units/ml), N-2-hydroxyethylpiperazine-N′-2-ethanesulfonate (10 mM), 0.1% sodium hydrogencarbonate and L-glutamin (2 mM)) supplemented with 5% heat inactivated fetal bovine serum (FBS) to give a single cell suspension of the spleen cell. After hemolysis treatment, the suspension was adjusted to10^7 cells/ml with RPMI1640 medium containing 10^−4 M 2-mercaptoethanol and 10% FBS and used as a reaction cell suspension.
The reaction cell suspension (50 μl) prepared by the above method, stimulated cell suspension (50 μl) and the test compound (100 μl) prepared using RPMI1640 medium containing 10% FBS were added to a 96 well plate and incubated at 37° C. under 5% CO2 gas, 95% air for 4 days.
A pigment assay using 3-(4,5-dimethylthiazol-2-yl)-2,5-diphenyltetrazolium bromide (MTT) was applied for the determination of lymphocyte transformation reaction.
After the completion of culture, the supernatant (100 μl) in each well was removed, and 5 mg/ml MTT solution (20 μl) was added to each well, which was followed by incubation at 37° C. for 4 hours. Then, a 0.01 N hydrochloric acid solution (100 μl) containing 10% sodium dodecyl sulfate was added and the mixture was incubated at 37° C. overnight. The resulting purple crystals of formazan was dissolved and absorbance at 550 nm was measured using a microplate absorption meter, which was used as the index of lymphocyte transformation reaction of the mouse allogenic MLR. The inhibition of mouse allogenic MLR was evaluated by calculating the inhibition percentage by the following formula The results are shown in Table 7.

Row | Structure (SMILES) | IC50 (Human SK-Mel-28 melanoma) [µM] | IC50 [2] [µM] | other results
1 | NC[C@H]1CC[C@H](C(=O)Nc2ncnc3[nH]ncc23)CC1 [Compound 115.2HBr.1/4H2O, trans-N-(1H-pyrazolo[3,4-d]pyrimidin-4-yl)-4-aminomethylcyclohexanecarboxamide] | 9 |  | 
2 | N=C(N)NC[C@H]1CC[C@H](C(=O)Nc2ccnc3[nH]ccc23)CC1 [Compound 142.2HCl.H2O, trans-N-(1H-pyrrolo[2,3-b]pyridin-4-yl)-4-guanidinomethylcyclohexanecarboxamide] | 59 |  | inhibition at 100 µM (mouse femoral bone): 44.2%
3 | Cn1ccc2c(NC(=O)[C@H]3CC[C@H](CNC(=N)N)CC3)ccnc21 [Compound 145.2HCl.H2O, trans-N-(1-methylpyrrolo[2,3-b]pyridin-4-yl)-4-(guanidinomethyl)cyclohexanecarboxamide] | 62 |  | 
4 | C[C@@H](N)c1ccc(C(=O)Nc2ccncc2)cc1 [Compound 157.HCl.H2O, (R)-(+)-N-(4-pyridyl)-4-(1-aminoethyl)benzamide] |  | 55 | Increase in skin blood flow ± standard error (%) [1]: 211.6 ± 13.6%
5 | C[C@@H](N)c1ccc(C(=O)Nc2ccnc3[nH]ccc23)cc1N=[N+]=[N-] [Compound 179.2HBr.1/2H2O, (R)-(−)-N-(1H-pyrrolo[2,3-b]pyridin-4-yl)-4-(1-aminoethyl)-3-azidebenzamide] |  |  | IC50 [3]: 0.03 µM; IC50 [4]: 0.029 µM
6 | CC1CNCCN1S(=O)(=O)c1cccc2cnccc12 (stereo not drawn) [Compound 308.2HCl, 1-(5-isoquinolinesulfonyl)-2-methylpiperazine] |  |  | IC50 [5]: 5 µM; IC50 [6]: 13.9 µM
7 | CCCCCCCCNC(=N)NC[C@H]1CC[C@H](C(=O)Nc2ccnc3[nH]ccc23)CC1 [compound 153.2HCl, trans-N-(1H-pyrrolo[2,3-b]pyridin-4-yl)-4-(3-octylguanidinomethyl)cyclohexanecarboxamide] |  | 27 | 
8 | C[C@@H](N)c1ccc(C(=O)Nc2ccncc2)cc1Cl [compound 163.2HBr, (R)-(+)-N-(4-pyridyl)-4-(1-aminoethyl)-3-chlorobenzamide] |  | 63 | 
